From patent US20250042961A1, “P53 PEPTIDOMIMETIC MACROCYCLES” (MERCK SHARP & DOHME LLC, priority 2021, published 2025)
Converted amounts (≈) assume the structure as drawn. Read-outs that look alike come from different tables or passages of the source. *1 amine or outer side, *2 acyl side, *3 side chain or, on linkers, in order; H or OH if unused. Where a SMILES comes first, the peptide text is derived from it. Bridges are numbered along the chain shown (N, C = ends). [ ]: non-standard residue; d: D form. ξ: configuration not given here. ξαMeNle(6-ylidene) = CC(CCCC=[*:3])(N[*:1])C(=O)[*:2]; dPhe(4-CF3) = N[C@H](Cc1ccc(C(F)(F)F)cc1)C(=O)O; dTrp(6-F) = N[C@H](Cc1c[nH]c2cc(F)ccc12)C(=O)O

Legend:
MDM2 (1-125) = biological target: T1, MDM2 (1-125) (Homo sapiens, UniProt Q00987); assay: Competitive fluorescence anisotropy assay (FP Kd MDM2); assay type: binding
T1 construct: GST (N); His6 (N); TEV cleavage site ENLYFQG (N); made in house; host or cells: Escherichia coli BL21 (DE3) Rosetta T1R
T1 sequence (Q00987 with tags, fused parts or gaps): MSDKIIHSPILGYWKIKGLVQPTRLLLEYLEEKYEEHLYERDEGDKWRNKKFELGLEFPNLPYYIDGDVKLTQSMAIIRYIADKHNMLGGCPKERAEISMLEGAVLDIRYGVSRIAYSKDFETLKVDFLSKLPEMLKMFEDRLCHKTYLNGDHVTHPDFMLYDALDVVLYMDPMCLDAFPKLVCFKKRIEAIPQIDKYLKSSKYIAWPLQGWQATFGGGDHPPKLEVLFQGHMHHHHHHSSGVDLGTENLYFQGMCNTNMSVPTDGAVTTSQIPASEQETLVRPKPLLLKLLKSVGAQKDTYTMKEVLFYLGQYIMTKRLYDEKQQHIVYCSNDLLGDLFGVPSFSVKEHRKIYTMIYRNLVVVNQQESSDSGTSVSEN
Excerpt: For use in the peptide binding assay, a human MDM2 1-125 sequence was cloned into a pNIC-GST vector. The TEV (tobacco etch virus) cleavage site was changed from ENLYFQS (SEQ ID NO: 13) to ENLYFQG (SEQ ID NO: 14) to give a fusion protein with the following sequence:
[P] is the protein concentration (MDM2), [L] is the labeled peptide concentration, r is the anisotropy measured, r0 is the anisotropy of the free peptide, rb is the anisotropy of the MDM2-FAM-labeled peptide complex, Kd is the dissociation constant, [L]t is the total FAM labeled peptide concentration, and [P]t is the total MDM2 concentration. […] These values were then used to determine apparent Kd values of the respective competing ligands in subsequent competition assays in fluorescence anisotropy experiments. MDM2 and MDM4 competition experiments were performed with their respective concentrations held constant at 250 nM and 75 nM, in the presence of 50 nM of FAM-labeled 12/1. The competing molecules were then titrated against the complex of the FAM-labeled peptide and protein. Apparent Kd values were determined by fitting the experimental data to the equations shown below:
[L]st and [L]t denote labeled ligand and total unlabeled ligand input concentrations, respectively. Kd2 is the dissociation constant of the interaction between the unlabeled ligand and the protein.
In all competition experiments, it is assumed that [P]t>[L]st, otherwise considerable amounts of free labeled ligand would always be present and would interfere with measurements. Kd1 is the apparent Kd for the labeled peptide used and has been experimentally determined as described in the previous paragraph. The FAM-labeled peptide was dissolved in dimethyl sulfoxide (DMSO) at 1 mM and diluted into experimental buffer. Readings were carried out with an Envision Multilabel Reader (PerkinElmer). Experiments were carried out in PBS (2.7 mM KCl, 137 mM NaCl, 10 mM Na2HPO4 and 2 mM KH2PO4 (pH 7.4)) and 0.1% Tween-20 buffer. All titrations were carried out in triplicate. Curve-fitting was carried out using Prism 4.0 (GraphPad®). […] Negative control titrations of the ligands under investigation were also carried out with the fluorescently labeled peptide (in the absence of MDM2) to ensure no interactions were occurring between the ligands and the FAM-labeled peptide. […] Measurements were taken a minimum of three times (biological replicates) and values are reported as geometric means of the replicates.

[1] = test system: p53 responsive β-lactamase reporter in HCT116 cells; assay: p53 beta-lactamase reporter gene cellular functional assay; assay type: cell-based
Protocol: HCT116 cells were stably transfected with a p53 responsive β-lactamase reporter and expanded in McCoy's 5A Medium with 10% fetal bovine serum (FBS), Blasticidin, and Penicillin/Streptomycin and then transferred to 1.5 mL freezing vials and stored under liquid nitrogen in growth media containing 5% DMSO. […] The cells were then seeded into a 384-well plate at a density of 8000 cells per well. […] The final working concentration of DMSO was 0.5%. β-lactamase activity was detected using the ToxBLAzer Dual Screen (Invitrogen), as per the manufacturer's instructions. Measurements were made using the Envision multiplate reader (PerkinElmer). […] Measurements were taken a minimum of three times (biological replicates) and values are reported as geometric means of the replicates.

[2] = test system: Jump-In T-REx CHO-K1 BLA cells; assay: Tetracycline beta-lactamase reporter gene cellular assay (counterscreen); assay type: cell-based
Protocol: This assay was based on Jump-In™ T-REx™ CHO-K1 BLA cells containing a stably integrated β-lactamase under the control of an inducible cytomegalovirus (CMV) promoter. Cells were maintained in Dulbecco's Minimal Eagle Medium (DMEM) with 10% fetal bovine serum (FBS), Blasticidin, and Penicillin/Streptomycin and then transferred to 1.5 mL freezing vials and stored under liquid nitrogen in growth media containing 5% DMSO. […] Cells were seeded into a 384-well plate at a density of 4000 cells per well. […] The final working concentration of DMSO was 0.5%. β-lactamase activity was detected using the ToxBLAzer Dual Screen (Invitrogen), as per the manufacturer's instructions. Measurements were carried out using the Envision multiplate reader (PerkinElmer). Counterscreen activity was defined as the amount of β-lactamase activity induced by tetracycline. Measurements were taken a minimum of three times (biological replicates) and values are reported as geometric means of the replicates.

[3] = read-out: p53 activity EC50 (0% FBS, 4 h), 0% FBS, 4 h
[4] = read-out: p53 activity EC50 (10% FBS, 16 h), 10% FBS, 16 h
[5] = read-out: Counter screen EC50 (0% FBS, 4 h), 0% FBS, 4 h
[6] = read-out: Counter screen EC50 (10% FBS, 16 h), 10% FBS, 16 h

| Kd (MDM2 (1-125)) [µM] | EC50 [1, 3] [µM] | EC50 [1, 4] [µM] | SMILES | EC50 [2, 5] [µM] | EC50 [2, 6] [µM] | solubility (Solubility (PBS, pH 7)) [µM] |
| --- | --- | --- | --- | --- | --- | --- |
| 0.00043 | 1.41 | 0.79 | CC(=O)N[C@@H](C(=O)N[C@H](C)C(=O)N[C@H](Cc1c[nH]c2cc(F)ccc12)C(=O)N[C@H](Cc1ccc(O)cc1)C(=O)N[C@H](C)C(=O)NC1(C)CCC/C=C\CCCC(C)(C(=O)N[C@H](CC(C)C)C(=O)N[C@H](CO)C(=O)N[C@H](C)C(=O)N[C@H](C)C(=O)N[C@H](C)C(=O)N[C@H](CCC(=O)O)C(=O)N[C@H](C)C(=O)N[C@H](C)C(N)=O)NC(=O)[C@@H](CCC(N)=O)NC(=O)[C@@H](CCC(=O)O)NC(=O)[C@@H](Cc2ccc(C(F)(F)F)cc2)NC1=O)[C@H](C)O (stereo partly drawn) [Compound 7, Acetyl-^DPMI-δ-(6-10 olefinstaple) (D-K9D-Q, D-R12D-S, 3x(D-Ala)-(D-Glu)-2x(D-Ala)polypeptidetail)-NH2] (Ac-[dT][dA][dTrp(6-F)][dY][dA][ξαMeNle(6-ylidene)][dPhe(4-CF3)][dE][dQ][ξαMeNle(6-ylidene)][dL][dS][dA][dA][dA][dE][dA][dA]-NH2; staple (Z) 6-10) | > 50 | > 50 |  |
| 0.0217 | ≥ 50 | > 50 | CC(=O)N[C@@H](C(=O)N[C@H](C)C(=O)N[C@H](Cc1c[nH]c2cc(F)ccc12)C(=O)N[C@H](Cc1ccc(O)cc1)C(=O)N[C@H](C)C(=O)NC1(C)CCC/C=C\CCCC(C)(C(=O)N[C@H](CC(C)C)C(=O)N[C@H](CO)C(=O)N[C@H](C)C(=O)N[C@H](C)C(=O)N[C@H](C)C(=O)N[C@H](C)C(=O)N[C@H](C)C(=O)N[C@H](C)C(=O)N[C@H](C)C(=O)N[C@H](C)C(=O)N[C@H](C)C(N)=O)NC(=O)[C@@H](CCC(N)=O)NC(=O)[C@@H](CCC(=O)O)NC(=O)[C@@H](Cc2ccc(C(F)(F)F)cc2)NC1=O)[C@H](C)O (stereo partly drawn) [Compound 5, Acetyl- ^DPMI-δ-(6-10 olefinstaple) (D-K9D-Q, D-R12D-S, 9x(D-A)polypeptidetail)-NH2] (Ac-[dT][dA][dTrp(6-F)][dY][dA][ξαMeNle(6-ylidene)][dPhe(4-CF3)][dE][dQ][ξαMeNle(6-ylidene)][dL][dS][dA][dA][dA][dA][dA][dA][dA][dA][dA]-NH2; staple (Z) 6-10) | > 50 | > 50 | 16 (≈ 35.7 µg/mL) |

| SMILES | Kd (MDM2 (1-125)) [µM] | EC50 [1, 3] [µM] | EC50 [1, 4] [µM] | EC50 [2, 5] [µM] | EC50 [2, 6] [µM] | solubility (Solubility (PBS, pH 7)) [µM] |
| --- | --- | --- | --- | --- | --- | --- |
| CC(=O)N[C@@H](C(=O)N[C@H](C)C(=O)N[C@H](Cc1c[nH]c2cc(F)ccc12)C(=O)N[C@H](Cc1ccc(O)cc1)C(=O)N[C@H](C)C(=O)NC1(C)CCC/C=C\CCCC(C)(C(=O)N[C@H](CC(C)C)C(=O)N[C@H](CO)C(=O)N[C@H](C)C(=O)N[C@H](C)C(=O)N[C@H](C)C(N)=O)NC(=O)[C@@H](CCC(N)=O)NC(=O)[C@@H](CCC(=O)O)NC(=O)[C@@H](Cc2ccc(C(F)(F)F)cc2)NC1=O)[C@H](C)O.N (stereo partly drawn) [Compound 3, Acetyl-^DPMI-δ-(6-10 olefinstaple) (D-K9D-Q, D-R12D-S, 3x(D-A)polypeptidetail)-NH2] (Ac-[dT][dA][dTrp(6-F)][dY][dA][ξαMeNle(6-ylidene)][dPhe(4-CF3)][dE][dQ][ξαMeNle(6-ylidene)][dL][dS][dA][dA][dA]-NH2; staple (Z) 6-10) | 0.0031 | 1.44 | 4.34 | > 50 | > 50 | 140 |
